Experimental data as given in patent US8338616B2, “Thiazoliums and their use for treating protein aging associated diseases” (Beijing Molecule Science And Technology Co., Ltd., priority 2008, dated 2012).
Where “and” joins values, the source holds several entries; their conditions need not be identical. Identical values can stand only once. Like-named read-outs stand apart in the source and are kept apart here. Marks after values point to notes of the source that are not given here.

Columns and labels:
diabetic rats = details: for CO / Cl / Diastolic pressure / Heart rate / SAC / Systolic pressure / TPR / TPR index / Organ parameters: Heart / Organ parameters: Heart ventricle / Organ parameters: Left kidney / Organ parameters: Left ventricle / Organ parameters: Right kidney: diabetic rats; for CO / Cl / Diastolic pressure / Heart rate / SAC / Systolic pressure / TPR / TPR index: 4 weeks; for Organ parameters: Heart / Organ parameters: Heart ventricle / Organ parameters: Left kidney / Organ parameters: Left ventricle / Organ parameters: Right kidney: dose not given
Method: Rats were anesthetized with pentobarbital sodium injection (0.8%, 50 mg/kg), subjected to tracheal cannula, heparin anticoagulation, right common carotid artery cannula, communicated with Biopac physiological recorder via is pressure transducers to record blood pressure; subjected to thoracotomy at middle of sternum, separation of ascending aorta which was covered with pulse Doppler probe, and the pulse Doppler rheometer was linked to the Biopac physiological recorder for real-time recording and calculating hemodynamic parameters by the software of Biopac (Acknowledge, Version 3): systolic blood pressure (SBP), diastolic blood pressure (DBP), heart rate (HR), cardiac output
(CO), cardiac index (CI), total peripheral resistance (TPR), total peripheral resistance index (TPR Index), stroke volume (SV) and system arterial compliance (SAC), etc. After 10 min of postoperative stabilization, these parameters were recorded continuously, and mean values for 30 s were used as the measured values of these parameters.
Formula for calculating some of hemodynamic parameters: TPR=mean arterial pressure (MAP)/CO SAC=SV/(SBP−DBP)

[1] = test system: diabetic-hypertension rats
Method: The experiment about influence of AGEs breaker on hypotensive effect of nifedipine was performed on a diabetic-hypertension rat model. […] During the experiment, the animals took food freely, and were not interfered with any hypoglycemic drugs or hypotensive drugs.
The compound A was dissolved in distilled water, ready for use. Rats were randomly grouped as diabetic-hypertension control (DM-HTN) group and A (18 mg/kg) group. The drug was introgastrically administered once per day, and an equal amount of distilled water was administered in the diabetic-hypertension control group, for consecutive 4 weeks. After the end of experiment, blood samples were taken, thoracic aorta, liver, kidney were stored at −70° C. for standby use, and used for assays for tissue biochemical indicators and gene expression. Another part of kidney was fixed with 4% paraformaldehyde and used for pathological staining.
Nifedipine powder was formulated with DMSO to form a 5 mg/ml solution, then diluted with 15% ethanol-10% DMSO-25% PEG400 to form a 500 μg/ml solution, and diluted again to form 125 μg/ml, 62.5 μg/ml, 31.25 μg/ml, 15.62 μg/ml, 7.8 μg/ml solutions.
Rats were anesthetized with urethane-chloralose mixture by i.p., subjected to heparin anticoagulation, right common carotid artery cannula, communicated with
Biopac physiological recorder via pressure transducers. Through a right femoral vein remaining needle, nifedipine solutions were injected slowly by 5 batches in an order of concentrations from low to high, and arterial systolic pressure, diastolic pressure, pulse pressure and heart rate change were recorded continuously.

[2] = test system: AGE-BSA-collagen cross-links; details: n = 5
Method: AGE cross-link structures were prepared in vitro by cross-linking AGE-BSA to rat tail collagen coated on a 96 well ELISA plate. A ELISA method was used to evaluate the breaking effect of the compounds on AGE cross-links.
Normal Wister rats (body weight of 200±20 g) were sacrificed acutely, the tails were excised, and tail collagen was prepared at a temperature of 4° C. as follows. Tail tendon collagen fibrils were taken out, washed with physiological saline, peeled off non-collagen fibril tissues, rinsed with double-distilled water 3 times, cut into pieces, and immersed in 0.1% glacial acetic acid at 4° C. for one week during which it was shaken frequently. […] After dilution, the protein content was measured. […]
A solution containing 50 mg/ml of bovine serum albumin BSA (V) (Roch) and 0.5M of glucose in 0.2M PBS (pH 7.4) was incubated in dark at 37° C. under sterile condition for 3-4 months, to thereby form glycosylated BSA, i.e. BSA-AGE. […] Fluorescence scanning (Exi/Em (395/460 nm)) and SDS-PAGE were used to check the formation of BSA-AGE, and protein concentration was determined by the Lowery method.
The tail collagen coated 96 well ELISA plates were full-well treated with PBS (pH 7.4) for 1 hour to neutralize the acidic collagen. […] Within 10 minutes after the reaction, optical density (OD) was read at 450 nm on the BOBRAD Model 550 plate reader with the blank wells of the plates was set to 0. […]

[3] = test system: left ventricular cardiac muscle collagen of diabetic rats; details: printed for the group of A 18 mg/kg (three values), diabetic model 42.8±4.3, sodium
Method: After the end of vascular compliance experiment, the heart of each of rats was taken, trimmed to remove heart auricle and right ventricle and remain only left ventricle, the trimmed tissue block was planced in a mortar, added with a small amount of liquid nitrogen and ground rapidly, added with a small amount of liquid nitrogen again when the tissue became soft and ground continuously to form a fine powder, and stored at −70° C. for standby use. About 100 mg of cardiac muscle was weighed, added with 1 ml 200 μg/ml pepsin (solvent: 0.5 mol/L acetic acid), shaken at 37 ° C. for 2 h and 24 h, respectively, centrifuged at 40000 g for 60 min, the supernatants of pepsin digestion solutions for 2 h and 24 h were separately taken, hydrolyzed and measured to determine hydroxyproline contents (the methods for hydrolysis and measurement are the same as aforementioned). The dissolubility of cardiac muscle collagen is calculated by the following formula: […]

[4] = test system: NaCl treated diabetic rats modeled with heart failure; assay: Chronic heart failure, first batch, ultrasonic cardiogram evaluation; format: in vivo, rat; details: valsartan 10 mg/kg, compound A 18 mg/kg ig
Method: The pharmacodynamic evaluation was conducted by using a noninvasive ultrasonic cardiogram method.
Evaluation indexes: (1) morphology indexes: left ventricular posterior wall dimensions (LVPWd), left ventricular diastasis internal diameter (LVDd), end systolic diameter (LVDs); (2) functional indexes: ejection fraction (EF), shortening fraction (FS), ventricular early blood flow filling rate (E), atrial filling rate (A) and ratio of E/A; Doppler tissue image; at cardiac apical four chamber view, the valve ring of anterior mitral valve was used as sampling point, peak early diastolic velocity (Ea peak), peak late diastolic velocity (Aa peak), and Ea/Aa ratio reflected the systolic and diastolic motion of the whole left ventricle.
SPSS statistic software was used to analyze and treat data, and all data were expressed in mean±standard deviation (Mean±SD).

[5] = diabetic-hypertension rats, A 18 mg/kg intragastric once per day, 4 weeks

SMILES: Cc1csc[n+]1CC(=O)O.[Na+] [A, 3-carboxymethyl-4-methyl-thiazolium bromide sodium]
- AGEs fluorescence content in aorta, left ventricular cardiac muscle and kidney (long-term diabetic rats): significantly decreasing
- CO (diabetic rats; 9 mg/kg i.g.): 84.9 ± 13.6 mL/min
- Cl (diabetic rats; 9 mg/kg i.g.): 0.194 ± 0.031 ml/min per cm^2
- Diastolic pressure (diabetic rats; 9 mg/kg i.g.): 68.8 ± 14.0 mmHg
- Heart rate (diabetic rats; 9 mg/kg i.g.): 265.2 ± 25.8^ beats/min
- SAC (diabetic rats; 9 mg/kg i.g.): 9.05 ± 1.44** 10^−3 ml/mmHg
- Systolic pressure (diabetic rats; 9 mg/kg i.g.): 105.3 ± 12.0 mmHg
- TPR (diabetic rats; 9 mg/kg i.g.): 78.6 ± 19.7** 10^3 · dyne · sec/cm^5
- TPR index (diabetic rats; 9 mg/kg i.g.): 181.6 ± 51.3 dyne · sec/cm^3
- CO (diabetic rats; 18 mg/kg i.g.): 79.2 ± 10.6 mL/min
- Cl (diabetic rats; 18 mg/kg i.g.): 0.179 ± 0.026 ml/min per cm^2
- Diastolic pressure (diabetic rats; 18 mg/kg i.g.): 72.8 ± 17.2 mmHg
- Heart rate (diabetic rats; 18 mg/kg i.g.): 282.2 ± 31.9^ beats/min
- SAC (diabetic rats; 18 mg/kg i.g.): 8.02 ± 1.27** 10^−3 ml/mmHg
- Systolic pressure (diabetic rats; 18 mg/kg i.g.): 108.7 ± 14.7 mmHg
- TPR (diabetic rats; 18 mg/kg i.g.): 87.4 ± 22.3* 10^3 · dyne · sec/cm^5
- TPR index (diabetic rats; 18 mg/kg i.g.): 198.2 ± 56.2 dyne · sec/cm^3
- CO (diabetic rats; 36 mg/kg i.g.): 77.7 ± 10.0 mL/min
- Cl (diabetic rats; 36 mg/kg i.g.): 0.179 ± 0.024 ml/min per cm^2
- Diastolic pressure (diabetic rats; 36 mg/kg i.g.): 60.7 ± 16.1 mmHg
- Heart rate (diabetic rats; 36 mg/kg i.g.): 261.0 ± 32.3^ beats/min
- SAC (diabetic rats; 36 mg/kg i.g.): 7.92 ± 1.11* 10^−3 ml/mmHg
- Systolic pressure (diabetic rats; 36 mg/kg i.g.): 99.2 ± 13.2 mmHg
- TPR (diabetic rats; 36 mg/kg i.g.): 77.0 ± 19.6** 10^3 · dyne · sec/cm^5
- TPR index (diabetic rats; 36 mg/kg i.g.): 176.4 ± 44.6 dyne · sec/cm^3
- Organ parameters: Heart (diabetic rats; first of three A lines): 3.42 g/g × 10^-3
- Organ parameters: Heart ventricle (diabetic rats; first of three A lines): 2.99 g/g × 10^-3
- Organ parameters: Left kidney (diabetic rats; first of three A lines): 5.20 g/g × 10^-3
- Organ parameters: Left ventricle (diabetic rats; first of three A lines): 2.29 g/g × 10^-3
- Organ parameters: Right kidney (diabetic rats; first of three A lines): 5.33 g/g × 10^-3
- Organ parameters: Heart (diabetic rats; second of three A lines): 3.44 g/g × 10^-3
- Organ parameters: Heart ventricle (diabetic rats; second of three A lines): 3.01 g/g × 10^-3
- Organ parameters: Left kidney (diabetic rats; second of three A lines): 5.16 g/g × 10^-3
- Organ parameters: Left ventricle (diabetic rats; second of three A lines): 2.34 g/g × 10^-3
- Organ parameters: Right kidney (diabetic rats; second of three A lines): 5.22 g/g × 10^-3
- Organ parameters: Heart (diabetic rats; third of three A lines): 3.44 g/g × 10^-3
- Organ parameters: Heart ventricle (diabetic rats; third of three A lines): 3.03 g/g × 10^-3
- Organ parameters: Left kidney (diabetic rats; third of three A lines): 5.07 g/g × 10^-3
- Organ parameters: Left ventricle (diabetic rats; third of three A lines): 2.32 g/g × 10^-3
- Organ parameters: Right kidney (diabetic rats; third of three A lines): 5.19 g/g × 10^-3
- effect on angiosclerosis (diabetic rats; long-term diabetic rats, 4 weeks of administration): improving angiosclerosis
- DBP [1, 5]: 144.2 ± 11.1 mmHg
- HR [1, 5]: 408.7 ± 35.7 beat/min
- MBP [1, 5]: 153.5 ± 13.7 mmHg
- PP [1, 5]: 22.9 ± 3.8 mmHg
- SBP [1, 5]: 166.6 ± 12.4 mmHg
- change in heart rate and blood pressure ([1]; diabetic-hypertension rats, compound A for 4 weeks): no significant change
- hypotensive extent of nifedipine ([1]; fourth dosage of nifedipine (62.5 μg/ml) i.v., after 4 weeks of A 18 mg/kg, model group 18.92±10.54): 29.99±9.06 mmHg
- hypotensive effect of nifedipine vs diabetic-hypertension model group ([1]; from second dosage of nifedipine (15.62 μg/ml), after 4 weeks of A 18 mg/kg): increased hypotensive effect
- hypotensive extent of nifedipine ([1]; third dosage of nifedipine (31.25 μg/ml) i.v., after 4 weeks of A 18 mg/kg, model group 9.35±6.46): 19.49±13.29 mmHg
- Breaking rate (decrease % in OD) ([2]; 0.01 umol/L): 8.1 ± 4.76, n =5%
- Breaking rate (decrease % in OD) ([2]; 0.1 umol/L): 11.3 ± 7.70, n = 5%
- cardiac muscle collagen dissolubility [3]: 54.7±11.0% and 53.7±11.9% and 57.7±7.3%
- E/A ratio ([4]; 10th week of administration (30th week of modeling), model control 2.5±0.31): 1.32±0.31
- Ea/Aa ratio vs model ([4]; 10th week of administration): increased significantly
- LVDd and LVDs vs model ([4]; 10th week of administration): slight decrease
- PWd vs model ([4]; 10th week of administration): slight increase
- E/A ratio ([4]; 16th week of administration (36th week of modeling), model control 2.5±0.52): 1.45±0.18
